Data set [1] has as its system MES SA DX (MES SA cell line with marked multi-drug resistance). As to the kind of experiment: In vitro cytotoxicity assay (CellTiter-Glo, 72 hours), MES SA DX. To be noted: Homo sapiens, MES-SA, 72 h. (In general: ATP-based viability assays read luminescence as a measure of living cells.)
The subject of data set [2] is MES SA (uterine sarcoma cell line). Put plainly: In vitro cytotoxicity assay (CellTiter-Glo, 72 hours), MES SA. To be noted: Homo sapiens, MES-SA. The format is cell-based.
Data set [3] relates to MES SA, MES SA DX and HEK 293T cells. As to the kind of experiment: In vitro cytotoxicity assay, structure-activity discussion over the cell lines tested. The conditions noted are these: refers to Tables 2 and 3.
The subject of data set [4] is HEK 293T (human embryonic kidney cancer cell line). As to the kind of experiment: In vitro cytotoxicity assay (CellTiter-Glo, 72 hours), HEK 293T. The format is cell-based. The conditions noted are these: Homo sapiens, HEK-293T.
[5] abbreviates: read-out: MES SA DX, IC50 Value in nM.
Setting [6] is: 72 h, read-out: MES SA, IC50 Value in nM.
Where [7] appears, read: 72 h, read-out: HEK 293T, IC50 Value in nM.

Structures are written as SMILES. Like-named read-outs stand apart in the source and are kept apart here.

With `CC[C@H](C)[C@H](NC(=O)[C@H]1CCCCN1C)C(=O)N(C)[C@H](C[C@@H](O)c1nc(C(=O)N[C@@H](Cc2ccccc2)C[C@H](C)C(=O)O)cs1)C(C)C` [Tb58, (2S,4R)-4-[({2-[(1R,3R)-1-Hydroxy-4-methyl-3-{methyl[(2S,3S)-3-methyl-2-({[(2R)-1-methylpiperidin-2-yl]carbonyl}amino)pentanoyl]amino}pentyl]-1,3-thiazol-4-yl}carbonyl)amino]-2-methyl-5-phenylpentanoic acid], the IC50 in data set [1] (setting [5]), in data set [2] (setting [6]) and in data set [4] (setting [7]) was > 1000 nM throughout. Also, the “cytotoxicity potency (in words, structure-activity discussion)” value (shortened to “cytotoxicity potency”) in data set [3] is listed as “significant reduction in potency”.
As to `CCOC(=O)[C@@H](C)C[C@H](Cc1ccccc1)NC(=O)c1csc([C@@H](C[C@H](C(C)C)N(C)C(=O)[C@H](CC)NC(=O)[C@H]2CCCCN2C)OC(C)=O)n1` [Tb93, Ethyl (2S,4R)-4-[({2-[(1R,3R)-1-acetoxy-4-methyl-3-{methyl[(2S)-2-({[(2R)-1-methylpiperidin-2-yl]-carbonyl}amino)butanoyl]amino}pentyl]-1,3-thiazol-4-yl}carbonyl)amino]-2-methyl-5-phenylpentanoate], the IC50 (in general, the concentration needed to halve the response being measured) was found to be 31.9 nM in data set [1] (read-out: MES SA DX, IC50); 31.9 nM in data set [1] (setting [5]); 0.15 nM in data set [2] (72 h, read-out: MES SA, IC50); 0.15 nM in data set [2] (setting [6]); 0.2 nM in data set [4] (72 h, read-out: HEK 293T, IC50); 0.2 nM in data set [4] (setting [7]). In data set [3], the “cytotoxicity potency” value is recorded as “significant potencies”.
Take `CCOC(=O)[C@@H](C)CC(Cc1ccccc1)NC(=O)c1csc([C@@H](CC(C(C)C)N(C)C(=O)[C@@H](NC(=O)[C@H]2C[C@H](O[Si](C)(C)C(C)(C)C)CCN2C)C(C)C)OC(C)=O)n1` (stereo in doubt) [Tb77, Ethyl (2S,4S)-4-[({2-[(1R,3S)-1-acetoxy-3-{[(2S)-2-({[(4R)-4-{[tert-butyl(dimethyl)silyl]oxy}-1-meth-ylpiperidin-2-yl]carbonyl}amino)-3-methylbutanoyl](methyl)amino}-4-methylpentyl]-1,3-thiazol-4-yl}carbonyl)amino]-2-methyl-5-phenylpentanoate]: the IC50 in data set [1] (setting [5]) is > 2500 nM; in data set [2] (setting [6]), 848 nM; in data set [4] (setting [7]), > 400 nM. In data set [3], the “cytotoxicity potency” value was “insignificant or low biological activity”.
`CCCCN1CCCC[C@@H]1C(=O)N[C@H](C(=O)N(C)[C@H](CCc1nc(C(=O)N[C@@H](Cc2ccccc2)C[C@H](C)C(=O)OC)cs1)C(C)C)[C@@H](C)CC` [PTb-D47]: the IC50 in data set [1] (setting [5]), in data set [2] (setting [6]) and in data set [4] (setting [7]) was > 1000 nM each time. Also, the “cytotoxicity potency” value in data set [3] was “insignificant or low biological activity”.
Take `CCOC(=O)[C@@H](C)C[C@H](Cc1ccccc1)NC(=O)c1csc([C@@H](C[C@H](C(C)C)N(C)C(=O)[C@H](CCC(C)C)NC(=O)[C@H]2CCCN2C)OC(C)=O)n1` [Tb98, Ethyl (2S,4R)-4-[({2-[(1R,3R)-1-acetoxy-4-methyl-3-{methyl[(2S)-5-methyl-2-({[(2R)-1-methyl-pyrrolidin-2-yl]carbonyl}amino)hexanoyl]amino}pentyl]-1,3-thiazol-4-yl}carbonyl)amino]-2-meth-yl-5-phenylpentanoate]: the 50% inhibitory concentration (IC50) in data set [1] (setting [5]) was 393 nM; in data set [2] (setting [6]) it was 41.8 nM; in data set [4] (setting [7]) it was 26.5 nM. Further, the “cytotoxicity potency” value in data set [3] was “lack of or significantly lower cytotoxicities”.
In the same order, the values of `CCCC[C@H](NC(=O)[C@H]1CCCN1C)C(=O)N(C)[C@H](C[C@@H](OC(C)=O)c1nc(C(=O)N[C@@H](Cc2ccccc2)C[C@H](C)C(=O)OCC)cs1)C(C)C` [Tb96, Ethyl (2S,4R)-4-[({2-[(1R,3R)-1-acetoxy-4-methyl-3-{methyl[(2S)-2-({[(2R)-1-methylpyrrolidin-2-yl]carbonyl}amino)hexanoyl]amino}pentyl]-1,3-thiazol-4-yl}carbonyl)amino]-2-methyl-5-phenylpentanoate] are > 1000 nM, 10.5 nM, 5.26 nM and “lack of or significantly lower cytotoxicities”.
For `CC[C@H](NC(=O)[C@H]1CCCCN1C)C(=O)N(C)[C@H](C[C@@H](OC(C)=O)c1nc(C(=O)N[C@@H](Cc2ccccc2)C[C@H](C)C(=O)O)cs1)C(C)C` [Tb94, (2S,4R)-4-[({2-[(1R,3R)-1-acetoxy-4-methyl-3-{methyl[(2S)-2-({[(2R)-1-methylpiperidin-2-yl]carbonyl}amino)butanoyl]amino}pentyl]-1,3-thiazol-4-yl}carbonyl)amino]-2-methyl-5-phenylpentanoic acid], the IC50 in data set [1] (read-out: MES SA DX, IC50) is 89.8 nM; in data set [1] (setting [5]), 89.8 nM; in data set [2] (72 h, read-out: MES SA, IC50), 0.46 nM; in data set [2] (setting [6]), 0.46 nM; in data set [4] (72 h, read-out: HEK 293T, IC50), 0.4 nM; in data set [4] (setting [7]) it was 0.4 nM. For the same molecule, in data set [3], the “cytotoxicity potency” value was “significant potencies”.
As to `CCCCN1CCCC[C@@H]1C(=O)N[C@H](C(=O)N(C)[C@H](CCc1nc(C(=O)N[C@@H](Cc2ccccc2)C[C@H](C)C(=O)OC)cs1)C(C)C)C(C)C` [PTb-D49], the IC50 in data set [1] (setting [5]) is > 1000 nM; in data set [2] (Table 2, 72 hours, CellTiter-Glo, read-out: MES SA, IC50 Value in nM), > 1000 nM; in data set [4] (Table 2, 72 hours, CellTiter-Glo, read-out: HEK 293T, IC50 Value in nM), > 1000 nM. Moreover, the “cytotoxicity potency” value in data set [3] is “insignificant or low biological activity”.
With `CC(C)[C@H](NC(=O)[C@H]1CCCCN1C)C(=O)N(C)[C@H](C[C@@H](O)c1nc(C(=O)N[C@@H](Cc2ccccc2)C[C@H](C)C(=O)O)cs1)C(C)C` [Tb60, (2S,4R)-4-[({2-[(1R,3R)-1-Hydroxy-4-methyl-3-{methyl[(2S)-3-methyl-2-({[(2R)-1-methylpiperidin-2-yl]carbonyl}amino)butanoyl]amino}pentyl]-1,3-thiazol-4-yl}carbonyl)amino]-2-methyl-5-phenylpentanoic acid], the IC50 in data set [1] (setting [5]) is > 2500 nM; in data set [2] (setting [6]), 14 nM; in data set [4] (setting [7]), 6.34 nM. For the same molecule, the “cytotoxicity potency” value in data set [3] is given as “significant reduction in potency”.
In the same order, the values of `COC(=O)[C@@H](C)C[C@H](Cc1ccccc1)NC(=O)c1nc([C@@H](C[C@H](C(C)C)N(C)C(=O)[C@@H](NC(=O)[C@H]2CCCCN2C)C(C)C)OC(C)=O)sc1C` [Tb66, Methyl (2S,4R)-4-[({2-[(1R,3R)-1-acetoxy-4-methyl-3-{methyl[(2S)-3-methyl-2-({[(2R)-1-methyl-piperidin-2-yl]carbonyl}amino)butanoyl]amino}pentyl]-5-methyl-1,3-thiazol-4-yl}carbonyl)amino]-2-methyl-5-phenylpentanoate] are > 1000 nM, 1.03 nM, 0.773 nM and “some loss of potency”.
In the same order, the values of `CC(=O)O[C@H](C[C@H](C(C)C)N(C)C(=O)[C@@H](NC(=O)[C@H]1CCCN1C)C(C)C)c1nc(C(=O)N[C@@H](Cc2ccccc2)C[C@H](C)C(=O)O)c(C)s1` [Tb71, (2S,4R)-4-[({2-[(1R,3R)-1-Acetoxy-4-methyl-3-{methyl[(2S)-3-methyl-2-({[(2R)-1-methylpyrrolidin-2-yl]carbonyl}amino)butanoyl]amino}pentyl]-5-methyl-1,3-thiazol-4-yl}carbonyl)amino]-2-methyl-5-phenylpentanoic acid] are > 1000 nM, 1.42 nM, 0.408 nM and “significant loss of potency”.
In the same order, the values of `COC(=O)CC[C@H](Cc1ccccc1)NC(=O)c1csc([C@@H](C[C@H](C(C)C)N(C)C(=O)[C@@H](NC(=O)[C@H]2CCCCN2C)C(C)C)OC(C)=O)n1` [Tb105, Methyl 4-{[(2-{1-acetoxy-4-methyl-3-[methyl(3-methyl-2-{[(1-methylpiperidin-2-yl)carbonyl]-amino}butanoyl)amino]pentyl}-1,3-thiazol-4-yl)carbonyl]amino}-5-phenylpentanoate] are > 1000 nM, 2.94 nM, 1.53 nM and “considerable loss of activity”.
In the case of `COC(=O)[C@@H](C)C[C@H](Cc1ccccc1)NC(=O)c1nc([C@@H](C[C@H](C(C)C)N(C)C(=O)[C@@H](NC(=O)[C@H]2CCCCN2C)C(C)C)OC(C)=O)sc1C(C)C` [Tb72, Methyl (2S,4R)-4-[({2-[(1R,3R)-1-acetoxy-4-methyl-3-{methyl[(2S)-3-methyl-2-({[(2R)-1-methyl-piperidin-2-yl]carbonyl}amino)butanoyl]amino}pentyl]-5-isopropyl-1,3-thiazol-4-yl}carbonyl)-amino]-2-methyl-5-phenylpentanoate], the IC50 was > 70 nM in data set [1] (setting [5]), 11.7 nM in data set [2] (setting [6]) and 4.02 nM in data set [4] (setting [7]). In data set [3], the “cytotoxicity potency” value is listed as “significant loss of potency”.
The like results for `CC[C@H](C)[C@H](NC(=O)c1cccn1C)C(=O)N(C)[C@H](C[C@@H](OC(C)=O)c1nc(C(=O)N[C@@H](Cc2ccccc2)C[C@H](C)C(=O)OC)cs1)C(C)C` [Tb50] were, in that order, > 1000 nM, > 1000 nM, > 1000 nM and “insignificant or low biological activity”.

Values taken from patent US11274124B2, “Tubulysin analogues as anticancer agents and payloads for antibody-drug conjugates and methods of treatment therewith” (William Marsh Rice University, priority 2017, dated 2022).
